Experimental data: US10525055B2, “Opioid receptor antagonist prodrugs” (Nirsum Laboratories, Inc., priority 2017, dated 2020)

Experiments:
[1] = Polymorph screening of solid state drug substances; conditions: for XRPD results (Dried): stirred 50 °C 72 hours, solids dried; for Visual observation 50° C. / Visual observation RT: target conc. 100 mg/ml; for Comment: stability of initial crystal form (pattern A): polymorph screen over Heptane
[2] = Plasma stability assay, rat plasma; type: in vitro ADME; conditions: 37° C., 10 μM
[3] = Physical characterization of solid state drug substance (PLM, XRPD, DSC, TGA); type: physicochemical; conditions: for Thermal Gravimetric Analysis, weight loss: at 120° C., heated from room temperature at 10° C./minute
Method: The analysis of the physical characteristics of drug substances that were in a solid state was conducted using polarized light microscopy (PLM), X-ray powder diffractometer (XRPD) assessment, Differential Scanning calorimetry (DSC) and Thermal Gravimetric Analysis (TGA). For PLM, samples were dispersed in immersion oil and were observed using an ocular lens (10×) and objective lens (20×) under crossed polarizers. For XRPD, samples were run on a diffractometer using the following method: Tube—Cu: K-alpha (λ=1.54179 Å); Generator—Voltage 40 kV, Current 40 mA; Scan scope—3 to 40°; sample rotation speed—15 rpm; scanning rate—10 deg/min. For DSC, ˜1 mg of sample was tested using a crimped aluminum pan and covered by a lid with a hole, heated from room temperature to 300° C. at a speed of 10° C./minute. For TGA, 2-5 mg of sample was placed in an open platinum pan and heated from room temperature to 300° C. at a rate of 10° C./minute.

[4] = Solubility determination in oil (cottonseed oil, sesame oil); conditions: Sesame oil, heating temp. 60 °C
Method: A known amount of test substance (˜40 mg) was weighed into the vial, 100 μL of oil was added and heated to 60° C. and then system was slurried to reach equilibrium. […] Extra oil was added into the vial once compound precipitated out and then the system was re-equilibrated at 1000 rpm at room temperature (25° C.). Final concentration was determined by HPLC method as described below in Table 6a and 6b.

[5] = MTBE, Isopropanol, EtOAc, Acetone

Structure (SMILES) | XRPD results (Dried) ([1]; Acetone) | Visual observation 50° C. ([1]; Acetone) | Visual observation RT ([1]; Acetone) | XRPD results (Dried) ([1]; EtOAc) | Visual observation 50° C. ([1]; EtOAc) | Visual observation RT ([1]; EtOAc) | XRPD results (Dried) ([1]; Heptane) | Visual observation 50° C. ([1]; Heptane) | Visual observation RT ([1]; Heptane) | XRPD results (Dried) ([1]; Isopropanol) | Visual observation 50° C. ([1]; Isopropanol) | Visual observation RT ([1]; Isopropanol) | XRPD results (Dried) ([1]; MTBE) | Visual observation 50° C. ([1]; MTBE) | Visual observation RT ([1]; MTBE) | % remaining at time point in minutes, 0 min [2] [%] | % remaining at time point in minutes, 15 min [2] [%] | % remaining at time point in minutes, 120 min [2] [%] | % remaining at time point in minutes, 480 min [2] [%] | % remaining at time point in minutes, 1440 min [2] [%] | other results
CCCCCCCCCCOC(=O)Oc1ccc2c3c1O[C@H]1C(=O)CC[C@@]4(O)C(C2)N(CC2CC2)CC[C@]314 [Compound 10, (4aS,7aR,12bS)-3-(cyclopropylmethyl)-4a-hydroxy-7-oxo-2,3,4,4a,5,6,7,7a-octahydro-1H-4,12-methanobenzofuro[3,2-e]isoquinolin-9-yl decyl carbonate] | Pattern A | Clear | Slurry | Pattern A | Clear | Slurry | Pattern A | Slurry | Slurry | Pattern A | Clear | Slurry | Pattern A | Clear | Clear | 100 | 0 | 0 | 0 | 0 | Comment: stability of initial crystal form (pattern A) [1, 5]: stable form. Same form (pattern A); Thermal Gravimetric Analysis, weight loss [3]: Weight loss of 0.3047%
CCCCCCCCCCCCOC(=O)Oc1ccc2c3c1O[C@H]1C(=O)CC[C@@]4(O)C(C2)N(CC2CC2)CC[C@]314 [Compound 11, (4aS,7aR,12bS)-3-(cyclopropylmethyl)-4a-hydroxy-7-oxo-2,3,4,4a,5,6,7,7a-octahydro-1H-4,12-methanobenzofuro[3,2-e]isoquinolin-9-yl dodecyl carbonate] | Pattern A | Clear | Slurry | Pattern A | Clear | Slurry | Pattern B | Clear | Clear | Pattern A | Clear | Slurry | Pattern A | Clear | Clear | 100 | 0.7 | 0.3 | 0.2 | 0 | Comment: stability of initial crystal form (pattern A) [1, 5]: to be stable form; Pattern A generated; Approximate Solubility (mg/mL) in Excipient: Sesame oil ([4]; obs. temp. 25 °C): <50 mg/mL; Thermal Gravimetric Analysis, weight loss [3]: Weight loss of 0.30% at
C=C1CC[C@@]2(O)C3Cc4ccc(OC(=O)OCCCCCCCCCCCCCCCC)c5c4[C@@]2(CCN3CC2CC2)[C@H]1O5 [Compound 19, (4aS,7aS,12bS)-3-(cyclopropylmethyl)-4a-hydroxy-7-methylene-2,3,4,4a,5,6,7,7a-octahydro-1H-4,12-methanobenzofuro[3,2-e]isoquinolin-9-yl hexadecyl carbonate] | Pattern A | Clear | Slurry | Pattern A | Clear | Slurry | Pattern A | Clear | Slurry | Pattern A | Clear | Slurry | Pattern A | Clear | Clear | 100 | 70.1 | 71.5 | 43.8 | 33.3 | Comment: stability of initial crystal form (pattern A) [1, 5]: to be stable fomr. Same crystal form; Thermal Gravimetric Analysis, weight loss [3]: Weight loss of 0.1623%
CCCCCCCCCCCCCCCCOC(=O)Oc1ccc2c3c1O[C@H]1C(=O)CC[C@@]4(O)C(C2)N(CC2CC2)CC[C@]314 [Compound 21, (4aS,7aR,12bS)-3-(cyclopropylmethyl)-4a-hydroxy-7-oxo-2,3,4,4a,5,6,7,7a-octahydro-1H-4,12-methanobenzofuro[3,2-e]isoquinolin-9-yl hexadecyl carbonate] | Pattern A | Clear | Slurry | Pattern A | Clear | Slurry | Pattern A | Clear | Slurry | Pattern A | Clear | Slurry | Pattern A | Clear | Clear | 100 | 73.5 | 68.3 | 59.8 | 40.9 | Comment: stability of initial crystal form (pattern A) [1, 5]: stable form. Same crystal form; Approximate Solubility (mg/mL) in Excipient: Sesame oil ([4]; obs. temp. 40 °C): 101 to 134.5 mg/mL; X-ray Powder Diffraction ([3]; solid state drug substance, XRPD/PLM): Crystal Form with partial
C=C1CC[C@@]2(O)C3Cc4ccc(OC(=O)OCCCCCCCCCCCCCC)c5c4[C@@]2(CCN3CC2CC2)[C@H]1O5 [Compound 31, (4aS,7aS,12bS)-3-(cyclopropylmethyl)-4a-hydroxy-7-methylene-2,3,4,4a,5,6,7,7a-octahydro-1H-4,12-methanobenzofuro[3,2-e]isoquinolin-9-yl tetradecyl carbonate] | Pattern A | Clear | Slurry | Pattern A | Clear | Clear | Pattern A | Clear | Slurry | Pattern A | Clear | Clear | Pattern A | Clear | Slurry | 100 | 123.2 | 73.5 | 54.4 | 46.4 | Approximate Solubility (mg/mL) in Excipient: Sesame oil ([4]; obs. temp. 25 °C): >413.5 mg/mL; Thermal Gravimetric Analysis, weight loss [3]: Weight loss of 0.7244%
C=C1CC[C@@]2(O)C3Cc4ccc(OC(=O)CCCCCCCCCCCCCCC)c5c4[C@@]2(CCN3CC2CC2)[C@H]1O5 [Compound 56, (4aS,7aS,12bS)-3-(cyclopropylmethyl)-4a-hydroxy-7-methylene-2,3,4,4a,5,6,7,7a-octahydro-1H-4,12-methanobenzofuro[3,2-e]isoquinolin-9-yl palmitate, reference compound] |  |  |  |  |  |  |  |  |  |  |  |  |  |  |  | 100 | 73.1 | 56.7 | 35.8 | 16.8 | Thermal Gravimetric Analysis, weight loss [3]: Weight loss of 0.1815%
